The supplement of paper PMC10307832

Experiments:
Experiment in all cases: relative viability (nuclei count vs DMSO), 5 days (fraction); higher = more cells survive
[1] = compound: Nc1nc(Nc2ccc3c(c2)CC[C@@H](N2CCCC2)CC3)nn1-c1cc2c(nn1)-c1ccccc1CCC2 [Bemcentinib] + CC(=O)c1c(C)c2cnc(Nc3ccc(N4CCNCC4)cn3)nc2n(C2CCCC2)c1=O [Palbociclib] (partner 0.5 µM)
How it was run: (§1)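 Nuclei were stained with Hoechst during a one-step fixation (final 0.05% Triton X-100, 1% formaldehyde, 1 ug/ml Hoechst) carried out 5 days after dosing, then counted on 4× images. The cells, lung cancer lines in 1536-well plates, had been dosed by pin tool the day after seeding with one drug alone or a fixed anchor-drug dose plus five library-drug doses (not always all listed) in √10 steps. Relative viability is the nuclei count in treated wells divided by that in vehicle wells, and each value is the median of duplicate plates.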

[2] = compound: Nc1nc(Nc2ccc3c(c2)CC[C@@H](N2CCCC2)CC3)nn1-c1cc2c(nn1)-c1ccccc1CCC2 [Bemcentinib] + COc1cc2c(Oc3ccc(NC(=O)C4(C(=O)Nc5ccc(F)cc5)CC4)cc3F)ccnc2cc1OCCCN1CCOCC1 [Foretinib] (partner 0.25 µM)
How it was run: as §1

[3] = compound: Nc1nc(Nc2ccc3c(c2)CC[C@@H](N2CCCC2)CC3)nn1-c1cc2c(nn1)-c1ccccc1CCC2 [Bemcentinib] + CS(=O)(=O)N1CCN(Cc2cc3nc(-c4cccc5[nH]ncc45)nc(N4CCOCC4)c3s2)CC1 [Pictilisib] (partner 1 µM)
How it was run: as §1

[4] = compound: CNC(=O)c1ccccc1Sc1ccc2c(/C=C/c3ccccn3)n[nH]c2c1 [Axitinib] + COc1cccc2cc(-c3nc([C@H]4CC[C@H](C(=O)O)CC4)n4ncnc(N)c34)[nH]c12 [OSI-027] (partner 0.5 µM)
How it was run: as §1

With NCI-H1993 the relative viability ([1]; first compound 0.04 µM) was 0.62, the relative viability ([1]; first compound 0.1265 µM) was 0.723 and the relative viability ([1]; first compound 0.4 µM) was 0.718. For the same cell line, the relative viability ([1]; first compound 1.265 µM) was 0.651, the relative viability ([1]; first compound 4 µM) was 0.708 and the relative viability ([2]; first compound 0.04 µM) was 0.82. The relative viability ([2]; first compound 0.1265 µM) was 0.76, the relative viability ([2]; first compound 0.4 µM) was 0.833 and the relative viability ([2]; first compound 1.265 µM) was 0.764. The relative viability ([2]; first compound 4 µM) was 0.829, the relative viability ([3]; first compound 0.04 µM) was 0.833 and the relative viability ([3]; first compound 0.1265 µM) was 0.853. It also gave a relative viability ([3]; first compound 0.4 µM) of 0.834, a relative viability ([3]; first compound 1.265 µM) of 0.904 and a relative viability ([3]; first compound 4 µM) of 0.777. For the same cell line, the relative viability ([4]; first compound 0.005 µM) was 0.549, the relative viability ([4]; first compound 0.01581 µM) was 0.573 and the relative viability ([4]; first compound 0.05 µM) was 0.582. It also gave a relative viability ([4]; first compound 0.1581 µM) of 0.481 and a relative viability ([4]; first compound 0.5 µM) of 0.484.

In the case of NCI-H2009, the relative viability ([1]; first compound 0.04 µM) is reported as 0.185, the relative viability ([1]; first compound 0.1265 µM) is reported as 0.21 and the relative viability ([1]; first compound 0.4 µM) is reported as 0.225. It also gave a relative viability ([1]; first compound 1.265 µM) of 0.239, a relative viability ([1]; first compound 4 µM) of 0.261 and a relative viability ([2]; first compound 0.04 µM) of 1.29. It also gave a relative viability ([2]; first compound 0.1265 µM) of 1.26, a relative viability ([2]; first compound 0.4 µM) of 1.25 and a relative viability ([2]; first compound 1.265 µM) of 1.24. The relative viability ([2]; first compound 4 µM) was 1.24, the relative viability ([3]; first compound 0.04 µM) was 0.753 and the relative viability ([3]; first compound 0.1265 µM) was 0.928. For the same cell line, the relative viability ([3]; first compound 0.4 µM) was 0.855, the relative viability ([3]; first compound 1.265 µM) was 0.914 and the relative viability ([3]; first compound 4 µM) was 0.888. For the same cell line, the relative viability ([4]; first compound 0.005 µM) was 0.699, the relative viability ([4]; first compound 0.01581 µM) was 0.684 and the relative viability ([4]; first compound 0.05 µM) was 0.646. For the same cell line, the relative viability ([4]; first compound 0.1581 µM) was 0.697 and the relative viability ([4]; first compound 0.5 µM) was 0.887.

With NCI-H2023 the relative viability ([1]; first compound 0.04 µM) was 0.416, the relative viability ([1]; first compound 0.1265 µM) was 0.398 and the relative viability ([1]; first compound 0.4 µM) was 0.388. For the same cell line, the relative viability ([1]; first compound 1.265 µM) was 0.437, the relative viability ([1]; first compound 4 µM) was 0.425 and the relative viability ([2]; first compound 0.04 µM) was 0.824. For the same cell line, the relative viability ([2]; first compound 0.1265 µM) was 1.09, the relative viability ([2]; first compound 0.4 µM) was 0.936 and the relative viability ([2]; first compound 1.265 µM) was 0.731. It also gave a relative viability ([2]; first compound 4 µM) of 0.686, a relative viability ([3]; first compound 0.04 µM) of 0.205 and a relative viability ([3]; first compound 0.1265 µM) of 0.261. It also gave a relative viability ([3]; first compound 0.4 µM) of 0.239, a relative viability ([3]; first compound 1.265 µM) of 0.276 and a relative viability ([3]; first compound 4 µM) of 0.248. For the same cell line, the relative viability ([4]; first compound 0.005 µM) was 0.437, the relative viability ([4]; first compound 0.01581 µM) was 0.446 and the relative viability ([4]; first compound 0.05 µM) was 0.396. It also gave a relative viability ([4]; first compound 0.1581 µM) of 0.337 and a relative viability ([4]; first compound 0.5 µM) of 0.468.

Work on NCI-H2085 yielded a relative viability ([1]; first compound 0.04 µM) of 0.456, a relative viability ([1]; first compound 0.1265 µM) of 0.449 and a relative viability ([1]; first compound 0.4 µM) of 0.44. It also gave a relative viability ([1]; first compound 1.265 µM) of 0.46, a relative viability ([1]; first compound 4 µM) of 0.47 and a relative viability ([2]; first compound 0.04 µM) of 1.08. The relative viability ([2]; first compound 0.1265 µM) was 1.11, the relative viability ([2]; first compound 0.4 µM) was 0.915 and the relative viability ([2]; first compound 1.265 µM) was 1.01. The relative viability ([2]; first compound 4 µM) was 0.889, the relative viability ([3]; first compound 0.04 µM) was 0.44 and the relative viability ([3]; first compound 0.1265 µM) was 0.468. For the same cell line, the relative viability ([3]; first compound 0.4 µM) was 0.418, the relative viability ([3]; first compound 1.265 µM) was 0.459 and the relative viability ([3]; first compound 4 µM) was 0.451. It also gave a relative viability ([4]; first compound 0.005 µM) of 0.827, a relative viability ([4]; first compound 0.01581 µM) of 0.691 and a relative viability ([4]; first compound 0.05 µM) of 0.857. It also gave a relative viability ([4]; first compound 0.1581 µM) of 0.77 and a relative viability ([4]; first compound 0.5 µM) of 0.66.

With NCI-H2087 the relative viability ([1]; first compound 0.04 µM) was 0.235, the relative viability ([1]; first compound 0.1265 µM) was 0.24 and the relative viability ([1]; first compound 0.4 µM) was 0.228. The relative viability ([1]; first compound 1.265 µM) was 0.273, the relative viability ([1]; first compound 4 µM) was 0.198 and the relative viability ([2]; first compound 0.04 µM) was 1.08. For the same cell line, the relative viability ([2]; first compound 0.1265 µM) was 1.32, the relative viability ([2]; first compound 0.4 µM) was 1.14 and the relative viability ([2]; first compound 1.265 µM) was 1.21. For the same cell line, the relative viability ([2]; first compound 4 µM) was 0.937, the relative viability ([3]; first compound 0.04 µM) was 0.813 and the relative viability ([3]; first compound 0.1265 µM) was 0.973. It also gave a relative viability ([3]; first compound 0.4 µM) of 1.03, a relative viability ([3]; first compound 1.265 µM) of 0.813 and a relative viability ([3]; first compound 4 µM) of 0.89. For the same cell line, the relative viability ([4]; first compound 0.005 µM) was 0.622, the relative viability ([4]; first compound 0.01581 µM) was 0.558 and the relative viability ([4]; first compound 0.05 µM) was 0.696. For the same cell line, the relative viability ([4]; first compound 0.1581 µM) was 0.562 and the relative viability ([4]; first compound 0.5 µM) was 0.831.

NCI-H2126 showed a relative viability ([1]; first compound 0.04 µM) of 0.342, a relative viability ([1]; first compound 0.1265 µM) of 0.334 and a relative viability ([1]; first compound 0.4 µM) of 0.364. For the same cell line, the relative viability ([1]; first compound 1.265 µM) was 0.385, the relative viability ([1]; first compound 4 µM) was 0.357 and the relative viability ([2]; first compound 0.04 µM) was 1.25. It also gave a relative viability ([2]; first compound 0.1265 µM) of 1.43, a relative viability ([2]; first compound 0.4 µM) of 1.37 and a relative viability ([2]; first compound 1.265 µM) of 1.13. It also gave a relative viability ([2]; first compound 4 µM) of 1.23, a relative viability ([3]; first compound 0.04 µM) of 0.475 and a relative viability ([3]; first compound 0.1265 µM) of 0.483. The relative viability ([3]; first compound 0.4 µM) was 0.531, the relative viability ([3]; first compound 1.265 µM) was 0.485 and the relative viability ([3]; first compound 4 µM) was 0.485. For the same cell line, the relative viability ([4]; first compound 0.005 µM) was 0.685, the relative viability ([4]; first compound 0.01581 µM) was 0.766 and the relative viability ([4]; first compound 0.05 µM) was 0.733. It also gave a relative viability ([4]; first compound 0.1581 µM) of 0.643 and a relative viability ([4]; first compound 0.5 µM) of 0.667.

For NCI-H2170, the relative viability ([1]; first compound 0.04 µM) was 0.394, the relative viability ([1]; first compound 0.1265 µM) was 0.415 and the relative viability ([1]; first compound 0.4 µM) was 0.395. For the same cell line, the relative viability ([1]; first compound 1.265 µM) was 0.422, the relative viability ([1]; first compound 4 µM) was 0.407 and the relative viability ([2]; first compound 0.04 µM) was 0.971. For the same cell line, the relative viability ([2]; first compound 0.1265 µM) was 1.16, the relative viability ([2]; first compound 0.4 µM) was 1.02 and the relative viability ([2]; first compound 1.265 µM) was 1.03. It also gave a relative viability ([2]; first compound 4 µM) of 0.993, a relative viability ([3]; first compound 0.04 µM) of 0.267 and a relative viability ([3]; first compound 0.1265 µM) of 0.324. It also gave a relative viability ([3]; first compound 0.4 µM) of 0.352, a relative viability ([3]; first compound 1.265 µM) of 0.259 and a relative viability ([3]; first compound 4 µM) of 0.311. The relative viability ([4]; first compound 0.005 µM) was 0.721, the relative viability ([4]; first compound 0.01581 µM) was 0.686 and the relative viability ([4]; first compound 0.05 µM) was 0.703. For the same cell line, the relative viability ([4]; first compound 0.1581 µM) was 0.715 and the relative viability ([4]; first compound 0.5 µM) was 0.631.

NCI-H2228 was tested, and the relative viability ([1]; first compound 0.04 µM) was 0.268, the relative viability ([1]; first compound 0.1265 µM) was 0.827 and the relative viability ([1]; first compound 0.4 µM) was 0.844. The relative viability ([1]; first compound 1.265 µM) was 0.836, the relative viability ([1]; first compound 4 µM) was 0.997 and the relative viability ([2]; first compound 0.04 µM) was 0.516. It also gave a relative viability ([2]; first compound 0.1265 µM) of 0.931, a relative viability ([2]; first compound 0.4 µM) of 0.994 and a relative viability ([2]; first compound 1.265 µM) of 0.908. The relative viability ([2]; first compound 4 µM) was 0.776, the relative viability ([3]; first compound 0.1265 µM) was 0.444 and the relative viability ([3]; first compound 0.4 µM) was 0.479. It also gave a relative viability ([3]; first compound 1.265 µM) of 0.535, a relative viability ([3]; first compound 4 µM) of 0.343 and a relative viability ([4]; first compound 0.005 µM) of 0.518. The relative viability ([4]; first compound 0.01581 µM) was 0.611, the relative viability ([4]; first compound 0.05 µM) was 0.716 and the relative viability ([4]; first compound 0.1581 µM) was 0.532. For the same cell line, the relative viability ([4]; first compound 0.5 µM) was 0.659.
